Legend:
[1] = system: cAMP-hydrolyzing PDE expressed in articular cartilage (PDE4-related peaks); assay: cAMP hydrolyzing activity (PDE activity) of Mono Q fractions of articular cartilage extract, radio-labeled nucleic acid assay; format: biochemical, rabbit; conditions: final concentration 1×10^−5 M; FIG. 1
Experimental: Four NZW line rabbits (Kitayama Labes., Co Ltd.; male; 4-week-old) were sacrificed with bleeding under ether anesthesia and femur knee joints were collected aseptically. The collected knee joints were stored in phosphate buffer (pH 7.2) containing 0.2% glucose and only the cortical layer of knee joint portion was scrapped with a knife into a 50 ml tube containing phosphate buffer (pH 7.2) containing 0.2% glucose. The collected knee joint cortical layer was cut into as small sections as possible on a dish with a razor, washed with ice-cold phosphate buffer and homogenized with a homogenizer (Polytron: Kinematica A.G.) in homogenization buffer (20 mM Tris-HCl, pH 7.4, 2 mM magnesium acetate, 0.3 mM calcium chloride, 1 mM dithiothreitol, 40 μM leupeptin, 1.3 mM benzamidine, 0.2 mM phenylmethylsulfonyl fluoride and 1 mM sodium azide). The resultant homogenate was centrifuged (100,000×g, 60 minutes) to separate supernatant.
The supernatant was subjected to Mono Q Sepharose High Performance column (Amersham Pharmacia Biotech) previously equilibrated with an elution buffer (20 mM Tris-HCl, pH 7.4, 1 mM calcium chloride, 1 mM dithiothreitol, 2 μM leupeptin, 5 mM benzamidine). […]
The determination of PDE activity was performed by a radio-labeled nucleic acid assay. […] To each eluate was added a liquid scintillation cocktail and the radio activity was measured.

articular chondrocytes = assay: Increase of matrix production of articular chondrocytes (Alcian blue staining of proteoglycan); format: cell-based, rabbit; conditions: for Proteoglycan Production (%): cultivation until day 5, vehicle = 100
Experimental: Four NZW line rabbits (Kitayama Labes., Co Ltd.; male; 4-week-old) were sacrificed with bleeding under ether anesthesia and femur knee joints were collected aseptically. The collected knee joints were stored in phosphate buffer (pH 7.2) containing 0.2% glucose and only the cortical layer of knee joint was scrapped with a surgical knife into a 50 ml tube containing phosphate buffer (pH 7.2) containing 0.2% glucose. The collected knee joint cortical layer was cut into as small sections as possible on a dish with a razor and shaken at 37° C. for 15 minutes in phosphate buffer containing 0.2% glucose, supplied with 10× trypsin-ethylenediamine tetraacetic acid (EDTA)·4 Na salt (GIBCO; Cat. No. 15400-054) (50 ml, with 100 mg of trypsin and 40 mg of EDTA·4Na; pH 7.2). After shaking, the sample was centrifuged (1,400 rpm) to collect precipitates, and the precipitates were washed twice with 40 ml of phosphate buffer containing 0.2% glucose. The washed precipitates were combined with 40 ml of serum-free α-minimum essential medium (MEM: GIBCO; Cat: No. 12571-063) containing 60 mg of collagenase for cell diffusion (Wako Pure Chemical Industries, Ltd., 034-10533) and transferred to a 100 ml beaker containing a sterilized stirrer bar. Under stirring with the stirrer bar, the collagenase digestion was carried on for about 1 hour in a CO2 incubator at 37° C. Cartilage fragments were removed from the collagenase-treated cells using a […] Cell Strainer ([FALCON; Cat. No. 2340]). To the residual treated cells was added 10 ml of α-MEM medium containing 10% fetal calf serum (FCS), and centrifuged (1,400 rpm). The precipitates were washed with 10% FCS-αMEM medium twice, suspended in appropriate volume of the same medium and the resultant suspension was seeded into collagen type II (Wako Pure Chemical Industries, Ltd., 033-13901)-coated plates (48 well) at 20,000 cells/well. On the next day, the medium was replaced with 10% FCS-αMEM medium.
When cells reached to confluent after the medium exchange procedure above, the medium for test group was replaced with test compound-containing medium (including 0.1% dimethylsulfoxide as a vehicle). As a medium to which a test compound is added, 10% FCS-αMEM medium containing 0.2 mM ascorbic acid was used. The day on which test compound-containing medium was added for the first time was defined as “day 1”. The medium exchange with the same medium was again conducted at day 3 and the cultivation continued until day 5. As to the control group, the medium was exchanged at the same time using the same medium as the test group except that it is free of test compound (containing vehicle only), and the cultivation was carried out in the same manner. After completion of cultivation, the supernatant was removed from the culture medium. Cells were fixed by addition of 0.25 ml of neutral buffer containing 4% paraformaldehyde and incubation for 2 hours. Cells were washed three times with 1 ml of phosphate buffer (pH 7.2) and then stained for 4 hours with 0.1% Alcian blue 8GX (Sigma; A3157) dissolved in 0.1 M hydrochloric acid, which Alcian blue selectively stains cartilage matrix proteoglycan. After staining, the cells were washed 3 times with 1 ml of phosphate buffer (pH 7.2). Alcian blue which had stained cartilage matrix was dissolved with 0.25 ml of aqueous 6 M guanidine hydrochloride solution and a portion of the solution was used to determine the absorbance at 620 nm. The amounts of Alcian blue used for staining was calculated from the absorbance, which in turn was used for the estimation of the amount of matrix (proteoglycan).

COc1ccc(C2CNC(=O)C2)cc1OC1CCCC1 (stereo not shown) [Compound (44)]
inhibition of cAMP hydrolyzing activity of the four peaks [1]: strongly inhibited | Proteoglycan Production (%) (articular chondrocytes; 1 × 10^−4 M): 116% | Proteoglycan Production (%) (articular chondrocytes; 1 × 10^−5 M): 125% | matrix production promoting activity (articular chondrocytes; summary of Table 1): exert matrix production promoting activity
